Experimental data reported in PMC3968004, “The Relevance of Testing the Efficacy of Anti-Angiogenesis Treatments on Cells Derived from Primary Tumors: A New Method for the Personalized Treatment of Renal Cell Carcinoma” (PLoS ONE, 2014).

Key:
[1] = tested on: ERK, AKT and S6K activity in M cells; assay: Immunoblotting of signaling pathways in M cells; type: cell-based, human
Excerpt: The following antibodies were used for Western blotting: anti-phospho ERK 1,2 (Sigma St Louis, MO, Reference M8159)), anti-phospho Akt, anti-Akt and anti-phospho S6 Kinase (Cell Signaling, Cambridge, UK, respectively References 4051, 9272, 9234) and anti-TFE3 anti ERKs (Santa Cruz Biotechnology, Santa Cruz, CA references sc 5958 (TFE3) and sc 93 (ERK)).
The effects of the different drugs on proliferation are correlated with the activity of intracellular signaling pathways (ERK and PI3 kinase/AKT/mTOR/S6 kinase (S6K)) in TF cells. […] The effects of the different drugs on signaling pathways have been tested in CC and M cells. […] Everolimus inhibited S6K with reactivation of AKT.
Supplementary file pone.0089449.s001.tif: Figure S1 In vitro sensitivity of the CC and M cells to the different drugs used to treat the patients; specific impact on downstream signaling pathways. A) The activity of major signaling pathways (ERK, PI3K/AKT/mTOR/S6K) in response to the different treatments (sunitinib (Su), sorafenib (So) and everolimus (Ev)) was determined by analysis of the presence of the phosphorylated forms of the kinases (pERK, pAKT, pS6K) in TF cells following a short-term treatment (two hours) by immunoblotting. Tubulin is shown as a loading control. […]

[2] = tested on: subcutaneous xenografts of TFE3 RCC cells; assay: Tumor xenografts of TF cells in nude mice; type: in vivo, nude (nu/nu) female mice; details: TF cell xenografts; for percentage of mice with decrease (D) of the tumor size / percentage of mice with progression (P) of the tumor size / percentage of mice with stabilization (S) of the tumor size: daily gavage for fifteen days, sunitinib 40 mg/kg or sorafenib 80 mg/kg; for percentage of mice with stabilization (S) of the tumor size: stable = change not exceeding 1.5-fold; for percentage of tumor that does not progress: stable plus decreased tumors
Protocol: This study was carried out in strict accordance with the recommendations in the Guide for the Care and Use of Laboratory Animals of Centre National de la Recherche Scientifique (CNRS). All efforts were made to minimize suffering. Our experiments were approved by the “Comité national institutionnel d'éthique pour l'animal de laboratoire (CIEPAL)”. The project is registered under the reference: NCE/2013-97. The mice were housed under strict pathogen-free conditions and given sterile food and water. Animals were housed 5 per cage. 10^7 cells were injected subcutaneously into the flank of 5-week-old nude (nu/nu) female mice (Janvier, France) under sodium pentobarbital anesthesia. The tumor volume was determined by using a caliper (v = L×l^2×0.52 [18]). When the tumor reached 100 mm3, mice were treated by daily gavage for fifteen days with placebo (dextrose-water vehicle), sunitinib (40 mg/kg) or sorafenib (80 mg/kg). The ratio between the size of the tumor before and at the end of treatment for each tumor was measured.
The capacity of the drugs to reduce or stabilize tumor growth was tested on subcutaneous xenografts of TFE3 RCC cells in nude mice. The tumor growth was rather long (three months), a result compatible with previous results obtained on direct grafting of tumor fragments of RCC in mice. […] Without any treatment tumors progressed (40%) or remained stable (40%) (Fig. 5A). […] In the presence of sorafenib, the growth of most of the tumors was stable (45%). […] Another striking observation was the presence of a majority of cells with clear cytoplasm on HES staining for stable tumors or tumors that regressed during treatment (Fig. 5B). This cytological feature was the same in the initial tumor.
Figure 5 In vivo sensitivity of the TF cells to the different drugs used to treat the patient. A) 10^7 cells were subcutaneously injected into nude mice. When the tumor was visible mice were treated with sunitinib or sorafenib for 15 days. Tumor size was evaluated with a caliper. The percentage of mice with progression (P), decrease (D) or stabilization (S) of the tumor size is indicated. B) The general histological aspect of a progressing tumor (P) or a regressing (D) tumor is shown for the different situations (Control, sunitinib, sorafenib). The percentage of clear zones in stable or responsive tumors was evaluated using the Leica software SlidePath Gateway. Statistical analysis was performed using a student's t test (* p<0.05). TEXT PRINTED IN THE PICTURE: (A) Sunitinib: P: 33 %; S: 17 %; D: 50 % | (A) Sorafenib: P: 22 %; S: 45 %; D: 33 %

Row | Compound | S6K activity [1] | number of clear zones in tumors (HES staining) ([2]; compared with control) | percentage of mice with decrease (D) of the tumor size [2] | percentage of mice with progression (P) of the tumor size [2] | percentage of mice with stabilization (S) of the tumor size [2] | percentage of tumor that does not progress [2]
1 | CO[C@H]1C[C@@H]2CC[C@@H](C)[C@@](O)(O2)C(=O)C(=O)N2CCCC[C@H]2C(=O)O[C@H]([C@H](C)C[C@@H]2CC[C@@H](OCCO)[C@H](OC)C2)CC(=O)[C@H](C)/C=C(\C)[C@@H](O)[C@@H](OC)C(=O)[C@H](C)C[C@H](C)/C=C/C=C/C=C/1C [everolimus] | strong inhibition | – | – | – | – | –
2 | CNC(=O)c1cc(Oc2ccc(NC(=O)Nc3ccc(Cl)c(C(F)(F)F)c3)cc2)ccn1 [sorafenib] | – | significant increase | 33% | 22% | 45% | 78%
3 | CCN(CC)CCNC(=O)c1c(C)[nH]c(/C=C2\C(=O)Nc3ccc(F)cc32)c1C [sunitinib] | – | – | 50% | 33% | 17% | 67%
